Patent publication EP2039683B1, “Vasculostatic agents and methods of use thereof” (Targegen, Inc., priority 2002, dated 2004)
Counter-ions that a name gives are not always drawn.

Columns and labels:
[1] = Acute myocardial infarct model, 60 min LAD occlusion followed by reperfusion; assay type: in vivo, Sprague-Dawley rats; conditions: for Infarct (% AAR, mean ± SEM): 24 hr post-treatment
Procedure: Myocardial infarcts were created in Sprague-Dawley rats (200-300 g body weight) by a 60 min occlusion of the LAD followed by LAD reperfusion. At 90 min post-reperfusion, either vehicle alone or test agents were injected IV. At 24 hr post-treatment, the ischemic zone (area at-risk, AAR) was delineated by re-ligation of the LAD followed by IV injection of alkali blue dye, after which hearts were sectioned along the short axis and stained using triphenyltetrazolium chloride to delineate viable from infarcted myocardium. Photographic images were then analyzed using morphometric software to calculate infarct area as a percent of the at-risk area.
In one group, 3-[2,4-diamino-6-(3-hydroxyphenyl)pteridin-7-yl] phenol dihydrochloride salt was administered at both 60 and 240 min post-occlusion.

[2] = system: VEGF-induced edema; test: Miles assay, VEGF as agonist; assay type: in vivo, Sprague-Dawley rats; conditions: VEGF 200 ng/injection site, vehicle 12
Procedure: A rodent model of vascular edema, the Miles assay, was used to screen compounds for their ability to inhibit VEGF-induced edema. […] Sprague-Dawley rats were first injected IV with vehicle alone or test agent, followed by IV injection of Evans blue dye, followed by intradermal injections of saline and VEGF (200 ng/injection site) along both shaved flanks. […] The ability of test agent to influence vascular edema was tested as above, except that the ability to block edema was tested using either VEGF or histamine as the agonist (200 ng and 10 µg/injection site, respectively).

[3] = Cerebral stroke model, permanent middle cerebral artery occlusion; assay type: in vivo, mice; conditions: 1 mg/kg BW IV 60 min after ligation; for Infarct area in mm^3 (mean ± SEM): twenty four hours later; for % Infarct reduction: versus vehicle of the same study
Procedure: Cerebral strokes were created in mice by permanent ligation of the middle cerebral artery using a cauterizing tool, followed 60 min later by IV injection of either vehicle alone (50% PEG400 in water) or test agents (at 1 mg/kg BW). Twenty four hours later, brains were sectioned and stained using triphenyltetrazolium chloride to delineate viable from infarcted tissue.

[4] = system: CT-26 Colon carcinoma cells; test: CT-26 colon carcinoma lung metastases model, net tumor burden; assay type: in vivo, Balb/C mice
Procedure: FIGURE 3 (omitted) illustrates the effect of compounds administered in conjunction with doxorubicin in an in vivo model of metastatic colon cancer (CT-26 adenocarcinoma). Syngeneic CT-26 Colon carcinoma cells were injected I.V. in order to establish lung metastases in Balb/C mice. Beginning 10 days after cells were injected, test agents were given I.P. every 3 days for 3 cycles. Animals were sacrificed at day 20, lungs were collected, and weighed. Net tumor burden is the weight of tumor-bearing lungs minus the average weight of normal control lungs. N=5/group, p<0.02. In the experiment compound A is 6,7-bis(4-hydroxyphenyl)-pteridin-4-ylamine sulfate salt, and compound B is 6,7-diphenyl-pteridine-2,4-diamine.
FIGURE 4 (omitted) illustrates the effects of compounds of the present invention for co-drug therapy with Taxotere as described herein. Syngeneic CT-26 Colon carcinoma cells were used in order to establish lung metastases in Balb/C mice as described above. 6,7-bis(4-hydroxyphenyl)-pteridin-4-ylamine, sulfate salt (compound A) and 6,7-diphenyl-pteridine-2,4-diamine (compound B) were used.
FIGURE 6 (omitted) illustrates the effect of compounds administered in conjunction with docetaxel in the in vivo model of metastatic colon cancer (CT-26 adenocarcinoma) described for FIGURE 4. 2,3-Bis(3,4-dihydroxyphenyl)-pyrido[2,3-b]pyrazin-6-ylamine dihydrochloride salt (compound C) from FIGURE 4 is shown in FIGURE 6 as compound C. N=5/group, p<0.02.
(§1) Syngeneic CT-26 Colon carcinoma cells were injected I. V. in order to establish lung metastases in Balb/C mice. Beginning 10 days after cells were injected, indicated test agents were given I. P. every 3 days for 3 cycles. Animals were sacrificed at day 20, lungs were collected, and weighed. Net tumor burden is the weight of tumor-bearing lungs minus the average weight of normal control lungs. N=5/group, p < 0.02.
as §1, with “FIGURE 4 (omitted) illustrates the effects of the compounds of the present invention for co- drug therapy with docetaxel (Taxoteree-in this example formulated in 12. 5% Cremaphore: 12.5% Ethanol: 75% normal saline) as described herein. Syngeneic” for “Syngeneic”, “I.V.” for “I. V.”
FIGURE 6 (omitted) illustrates the effect of compounds administered in conjunction with docetaxel (Taxoreree-in this example formulated in 12.5% Cremaphore: 12.5% Ethanol:75% normal saline) in the in vivo model of metastatic colon cancer (CT-26 adenocarcinoma) described for FIGURE 4 (omitted). […] N=5/group,p < 0.02.
Similarly, 2,3-bis (4-hydroxyphenyl)-pyrido [2,3-b] pyrazin-6-ylamine dihydrochloride salt inhibited tumor burden alone or with co-drug therapy using docetaxel (Taxotere@~in this example formulated in 12.5% Cremaphore : 12.5% Ethanol:75% normal saline) as described herein. Syngeneic CT-26 Colon carcinoma cells were injected I.V. in order to establish lung metastases in Balb/C mice. Beginning 10 days after cells were injected, indicated test agents were given I.P. every 3 days for 3 cycles. Animals were sacrificed at day 20, lungs were collected, and weighed.

[5] = 0.1 mg/kg BW IV at 90 min post-reperfusion
[6] = 0.1 mg/kg BW, versus vehicle of the same study
[7] = 1.0 mg/kg BW IV at 90 min post-reperfusion
[8] = 1.0 mg/kg BW, versus vehicle of the same study
[9] = in combination with docetaxel, I.P. every 3 days for 3 cycles, day 20
[10] = stand alone agent, docetaxel co-drug studies (FIGURES 4 and 6), I.P. every 3 days for 3 cycles, day 20

SMILES: Nc1nc(N)c2nc(-c3ccc(O)c(O)c3)c(-c3ccc(O)c(O)c3)nc2n1 [6,7-bis(3,4-dihydroxyphenyl)-pteridine-2,4,-diamine, hydrochloride salt]
- Infarct (% AAR, mean ± SEM) ([1]; 1.5 mg/kg BW IV at 90 min post-reperfusion): 36.3 ±6.3 % AAR
- % Infarct reduction ([1]; 1.5 mg/kg BW, versus vehicle of the same study): 33%

SMILES: Nc1nc(N)c2nc(CNCc3ccc4ccccc4c3)cnc2n1 [6-{[(Naphthalen-2-ylmethyl)-amino]-methyl}-pteridine-2,4-diamine]
- Score (scale of 0-12) ([2]; 0.1 mg/kg IV): 4

SMILES: Nc1ncnc2nc(-c3ccccn3)c(-c3ccccn3)nc12 [6,7-Di-pyridin-2-yl-pteridin-4-ylamine]
- Infarct area in mm^3 (mean ± SEM) [3]: 27.2 ± 2.63 mm^3
- % Infarct reduction [3]: Not significant

SMILES: Oc1cccc(-c2nc3nc(O)nc(O)c3nc2-c2cccc(O)c2)c1 [6,7-Bis-(3-hydroxy-phenyl)-pteridine-2,4-diol]
- Score (scale of 0-12) ([2]; 1.5 mg/kg IV): 3

SMILES: Cl.Nc1ncnc2nc(-c3cccc(O)c3)c(-c3cccc(O)c3)nc12 [6,7-Bis(3-hydroxyphenyl)-pteridine-4-ylamine hydrochloride salt]
- Infarct (% AAR, mean ± SEM) [1, 5]: 39.1 ± 4.2 % AAR
- % Infarct reduction [1, 6]: 37%
- Infarct (% AAR, mean ± SEM) [1, 7]: 39.1 ± 7.5 % AAR
- % Infarct reduction [1, 8]: 37%

SMILES: Cl.Cl.Nc1ccc2nc(-c3ccc(O)c(O)c3)c(-c3ccc(O)c(O)c3)nc2n1 [compound C, 2,3-Bis(3,4-dihydroxyphenyl)-pyrido[2,3-b]pyrazin-6-ylamine dihydrochloride salt]
- reduction of tumor burden [4, 9]: greater than 85%
- reduction of tumor burden [4, 10]: 65%

SMILES: Cl.Oc1ccc(Nc2ncnc3ncc(-c4ccccc4)nc23)c2cccnc12 [5-(6-Phenyl-pteridin-4-ylamino)-quinolin-8-ol hydrochloride salt]
- Score (scale of 0-12) ([2]; 0.5 mg/kg IV): 5

SMILES: Oc1nc(O)c2nc(-c3ccccc3)c(-c3ccc(Oc4ccc(-c5nc6c(O)nc(O)nc6nc5-c5ccccc5)cc4)cc3)nc2n1
- Score (scale of 0-12) ([2]; 1.5 mg/kg IV): 3

SMILES: Cl.Cl.Nc1ccc2nc(-c3ccc(O)cc3)c(-c3ccc(O)cc3)nc2n1 [2,3-bis(4-hydroxyphenyl)-pyrido[2,3-b]pyrazin-6-ylamine dihydrochloride salt]
- reduction of tumor burden [4, 9]: greater than 78%
- reduction of tumor burden [4, 10]: 63%

SMILES: O=C(Cc1ccc(O)cc1)Nc1ccccc1-c1cc2ccccc2[nH]1 [2-(4-Hydroxy-phenyl)-N-[2-(1H-indol-2-yl)-phenyl]-acetamide]
- Score (scale of 0-12) ([2]; 1.5 mg/kg IV): 2

SMILES: Cl.Nc1ncnc2nc(-c3ccc(O)c(O)c3)c(-c3ccc(O)c(O)c3)nc12 [4-[4-amino-6-(3,4-dihydroxyphenyl)pteridin-7-yl]benzene-1,2-diol chloride salt]
- Infarct (% AAR, mean ± SEM) [1, 5]: 37.1 ± 2.6 % AAR
- % Infarct reduction [1, 6]: 40%
- Infarct (% AAR, mean ± SEM) [1, 7]: 40.1 ± 2.0 % AAR
- % Infarct reduction [1, 8]: 35%

SMILES: O=C1c2ccccc2C(=O)N1c1ccccc1-c1cc2ccccc2[nH]1 [2-[2-(1H-indol-2-yl)-phenyl]-isoindole-1,3-dione]
- Score (scale of 0-12) ([2]; 1.5 mg/kg IV): 3

SMILES: O=C(Nc1ccccc1C1Cc2ccccc2N1)c1ccccc1O (stereo not shown) [N-[2-(2,3-Dihydro-1H-indol-2-yl)-phenyl]-2-hydroxy-benzamide]
- Score (scale of 0-12) ([2]; 0.5 mg/kg IV): 5

SMILES: Cl.Cl.Nc1nc(N)c2nc(-c3cccc(O)c3)c(-c3cccc(O)c3)nc2n1 [3-[2,4-diamino-6-(3-hydroxyphenyl)pteridin-7-yl] phenol dihydrochloride salt]
- Score (scale of 0-12) ([2]; 0.01 mg/kg IV): 3
- Score (scale of 0-12) ([2]; 0.1 mg/kg IV): 4
- Score (scale of 0-12) ([2]; 1 mg/kg IV): 4
- Infarct (% AAR, mean ± SEM) [1, 5]: 37.7 ± 5.8 % AAR
- % Infarct reduction [1, 6]: 30%
- Infarct (% AAR, mean ± SEM) [1, 7]: 46.4 ± 2.6 % AAR
- % Infarct reduction [1, 8]: Not significant

SMILES: Cl.Nc1cncc2nc(-c3ccc(O)c(O)c3)c(-c3ccc(O)c(O)c3)nc12 [2,3-(3,4-Dihydroxyphenyl)-pyrido[3,4-b]pyrazin-8-ylamine]
- Score (scale of 0-12) ([2]; 0.01 mg/kg IV): 6

SMILES: Br.Br.Nc1nc(N)c2nc(-c3cccc(O)c3)c(-c3cccc(O)c3)nc2n1 [3-[2,4-Diamino-6-(3-hydroxyphenyl)pteridin-7-yl]phenol dibromide salt]
- Infarct (% AAR, mean ± SEM) ([1]; 0.5 mg/kg BW IV at 90 min post-reperfusion, Study 5): 31.6 ± 6.2 % AAR
- % Infarct reduction ([1]; 0.5 mg/kg BW, versus vehicle, Study 5): 42%

SMILES: Nc1nc(N)c2nc(CNCc3ccccn3)cnc2n1 [6-{[(Pyridin-2-ylmethyl)-amino]-methyl}-pteridine-2,4-diamine]
- Score (scale of 0-12) ([2]; 0.1 mg/kg IV): 4

SMILES: Oc1nc(O)c2nc(-c3ccccc3)c(-c3ccccc3)nc2n1 [6,7-Diphenyl-pteridine-2,4-diol]
- Infarct area in mm^3 (mean ± SEM) [3]: 20.2 ± 4.19 mm^3
- % Infarct reduction [3]: 52%

SMILES: Nc1nc(N)c2nc(-c3ccccc3)c(-c3ccccc3)nc2n1 [compound B, 6,7-diphenyl-pteridine-2,4-diamine]
- reduction of tumor burden ([4]; in combination with doxorubicin as printed, FIGURE 4 experiment (docetaxel study)): greater than 70%
- reduction of tumor burden ([4]; in combination with doxorubicin, FIGURE 3 experiment, I.P. every 3 days for 3 cycles, day 20): greater than 65%
- tumor burden in lungs (photo of representative lung samples) ([4]; plus doxorubicin, compared with vehicle (control) lungs, FIGURE 5): dramatic reduction in tumor burden
- reduction of tumor burden ([4]; stand alone agent, FIGURE 3 experiment (doxorubicin study), I.P. every 3 days for 3 cycles, day 20): 35%
- reduction of tumor burden [4, 10]: 20%

SMILES: O=C(Nc1ccccc1-c1cc2ccccc2[nH]1)c1ccc(O)c(O)c1 [3,4-Dihydroxy-N-[2-(1H-indol-2-yl)-phenyl]-benzamide]
- Score (scale of 0-12) ([2]; 0.1 mg/kg IV): 6

SMILES: Nc1nc(N)c2nc(-c3ccc(O)cc3)cnc2n1 [4-(2,4-Diamno-pteridin-6-yl)-phenol (sulfate salt)]
- Score (scale of 0-12) ([2]; 5 mg/kg IV, lower score = greater anti-edema activity): 2

SMILES: O=C(Cc1ccc(O)c(O)c1)Nc1ccccc1-c1cc2ccccc2[nH]1 [2-(3,4-Dihydroxy-phenyl)-N-[2-(1H-indol-2-yl)-phenyl]-acetamide]
- Score (scale of 0-12) ([2]; 0.5 mg/kg IV): 7

SMILES: O=S(=O)(O)c1cc(Nc2ncnc3ncc(-c4ccccc4)nc23)ccc1O [2-Hydroxy-5-(6-phenyl-pteridin-4-ylamino)-benzenesulfonic acid]
- Score (scale of 0-12) ([2]; 0.5 mg/kg IV): 6

SMILES: O=C(CCc1ccc(O)cc1)Nc1ccccc1-c1cc2ccccc2[nH]1 [3-(4-Hydroxy-phenyl)-N-[2-(1H-indol-2-yl)-phenyl]-propionamide]
- Score (scale of 0-12) ([2]; 1.5 mg/kg IV): 2
